For experiment [1], the system named is subcutaneously implanted A375 tumours (BRAF V600E). Description: Subcutaneous A375 luc melanoma model (peripheral disease). The class given is in vivo, mice. From the text:
(§1) All animal experiments were approved by and performed according to the guidelines of the Institutional Animal Care Committee of the Vall d'Hebron Research Institute in agreement with the European Union and national directives. Female and male NOD scid gamma (NSG) mice of 4 to 5-week-old were purchased from Charles River.
For subcutaneous model, 5×10^6 A375 melanoma cells were subcutaneously injected into one flank of mice. Tumour growth was monitored with a Calipher.
The A375 cell line presenting BRAF V600E was used as melanoma model. The cell line was stably transduced with a luciferase expressing vector to facilitate tumor size monitoring. A375 luc were implanted subcutaneously to mimic peripheral disease and then randomized when tumors reached 100-300 mm^3. (10 mice/group). The mice were administered either Vehicle, Compound Ia 10 mg/kg (QD PO) or dabrafenib 100 mg/kg (QD PO). In a fourth treatment cohort, dabrafenib 100 mg/kg (QD PO) was administered until tumor relapse occurred, at which point dabrafenib treatment was discontinued and mice were instead treated with Compound Ia 10 mg/kg (QD PO).

Experiment [2] relates to intracranially implanted A375 tumours (BRAF V600E). Description: Intracranial A375 luc melanoma model (brain metastatic setting). The class given is in vivo, mice.
Excerpt: as §1
For intracranial models, 5×10^5 A375 luc cells were stereotactically inoculated into the corpus striatum of the right brain hemisphere (1 mm anterior and 1.8 mm lateral to the […]; 2.5 mm intraparenchymal) of mice. Brain implanted tumors were monitored through regular Bioluminescence (BLI) signal detection and a relapse was determined upon observation of a progressive gradual increase of BLI signal.
The A375 cell line presenting BRAF V600E was used as melanoma model. The cell line was stably transduced with a luciferase expressing vector to facilitate tumor size monitoring. […] Brain implanted tumors were monitored through regular Bioluminescence (BLI) signal detection and a relapse was determined upon observation of a progressive gradual increase of BLI signal. […]
The A375 cell line presenting BRAF V600E was used as melanoma model. […] Brain implanted tumors were monitored through regular Bioluminescence (BLI) signal detection and a relapse was determined upon observation of a progressive gradual increase of BLI signal (total flux (p/s) was used to estimate tumour size). […]

The subject of experiment [3] is primary tumors from brain metastatic lesions progressing on BRAFi monotherapy or combination therapy with a MEKi. Description: In vivo testing in primary tumors from brain metastatic lesions progressing on BRAFi or BRAFi/MEKi.
The mark [4] stands for this setting: relapse under dabrafenib 100 mg/kg QD PO, caliper.

With `Cn1cnc2ccc(Oc3c(F)ccc(NS(=O)(=O)N4CC[C@@H](F)C4)c3C#N)cc2c1=O` [Compound Ia, (3R)—N-[2-cyano-4-fluoro-3-(3-methyl-4-oxo-quinazolin-6-yl)oxy-phenyl]-3-fluoro-pyrrolidine-1-sulfonamide], the “responses, peripheral lesions” value in experiment [1] (peripheral compartment) is “long lasting responses”. Further, the “responses upon relapse to available BRAFi” value in experiment [1] (switch to Compound Ia after relapse, peripheral lesions) was “dramatic responses”. Besides, in experiment [2] (brain compartment), the “responses, brain metastatic lesions” value is on record as “long lasting responses”. Further, the “responses upon relapse to available BRAFi and BRAFi/MEKi co-treatment” value in experiment [2] (switch to Compound Ia after relapse, brain lesions) was “dramatic responses”. In experiment [3], the antitumor activity result was “potent antitumor activity”.

`CC(C)(C)c1nc(-c2cccc(NS(=O)(=O)c3c(F)cccc3F)c2F)c(-c2ccnc(N)n2)s1` [dabrafenib, reference compound]: in experiment [1] (setting [4]), the “Tumour size in relapse (mean value)” value came out at 558 mm^3 and the “Tumour size in relapse (range)” value is 300-700 mm3.

For the origin of these results see patent publication US20240366605A1, “USE OF QUINAZOLINONE COMPOUND FOR THE TREATMENT OF CANCER” (Hoffmann-La Roche Inc., priority 2021, published 2024).
